These are literature values, as cited in US20090221604A1, “Thiazole Compounds and Their Use as PGD2 Antagonists” (priority 2005, published 2009).

Series [1] concerns allergic conjunctivitis model.
For a further series, the system named is guinea pig. The settings on record: after oral dosing.
Series [2] relates to asthma model in the guinea pig.

The structures appear in SMILES notation.

As for `CC1(C)[C@H]2C[C@H](C/C=C\CCCC(=O)O)[C@@H](NC(=O)c3csc4ccc(O)cc34)[C@@H]1C2` [Example S-5751], the “allergen-induced plasma exudation in the conjunctiva” value in series [1] is given as “alleviated”. For the same compound, in the series with guinea pig, the “early (sneezing, mucosal plasma exudation, nasal blockage) and late (eosinophil infiltration) phase nasal responses” value was “inhibited”. Also, the “antigen-induced eosinophil infiltration into the lung” value in series [2] is reported as “alleviated”.
